Source: publication PMC10702411 (Nature structural & molecular biology, 2023)

Assays:
[1] = test system: mouse embryonic fibroblasts (MEFs); test: MTT survival assay, MEF; type: cell-based; details: LCL161 and/or TNF, 24 h, three independent biological replicates
[2] = test system: human glioma LN18 cells; test: MTT survival assay, LN18; type: cell-based; details: LCL161 and/or TNF, 24 h, three independent biological replicates
[3] = test system: BIRC2 and BIRC3 in HIV-TCM; test: western blot of BIRC2 and BIRC3, HIV-TCM; type: cell-based, human; details: 100 nM LCL161, 4 h, n = 4
[4] = test system: BIRC2 and BIRC3 in TCM; test: western blot of BIRC2 and BIRC3, uninfected TCM; type: cell-based, human; details: uninfected cells (TCM), 100 nM LCL161, 4 h; n = 4
[5] = test system: RIPK1; test: RIPK1 ubiquitination and Ser166 phosphorylation; type: cell-based, human; details: 100 nM LCL161, 5 min (ubiquitination) or 4 h; n = 4
[6] = test system: FAS DISC in TCM; test: FAS DISC coimmunoprecipitation, TCM; type: cell-based, human; details: 100 nM LCL161, 4 h, co-IP, n = 4
[7] = test system: caspase-3 and PARP1 in HIV-TCM; test: western blot of caspase-3 and PARP1, HIV-TCM; type: cell-based, human; details: 100 nM LCL161, 4 h, n = 4
[8] = test system: HIV-TCM; test: Cell Death Detection ELISA, HIV-TCM; type: cell-based, human; details: LCL161, 4 h, n = 4
[9] = test system: HIV-TCM; test: annexin V / propidium iodide flow cytometry, HIV-TCM; type: cell-based, human; details: LCL161, Supplementary Fig. 8
[10] = test system: HIV-TCM; test: LDH release assay, HIV-TCM; type: cell-based, human; details: LCL161, 4 h, n = 4
[11] = test system: TCM; test: apoptosis / cell death read-outs, uninfected TCM; type: cell-based, human; details: LCL161, 4 h
[12] = test system: HIV-TCM; test: HIV-1 p24 antigen release; type: cell-based; details: Supplementary Fig. 7c,d
[13] = test system: cancer cells; details: cited from earlier work
[14] = cited from earlier work
[15] = test system: IFNγ stimulated ex vivo differentiated monocyte-derived macrophages; test: cytokine antibody array, macrophages; type: cell-based, human; details: 10 μM embelin, IFNγ 24 h, supernatants; array in duplicate
[16] = target: BIRC2BIR3 (Homo sapiens, UniProt Q13490); test: X-ray crystal structure of BIRC2BIR3 complex; type: binding; details: Supplementary Fig. 2
Sequence of BIRC2BIR3 (Q13490 261-346): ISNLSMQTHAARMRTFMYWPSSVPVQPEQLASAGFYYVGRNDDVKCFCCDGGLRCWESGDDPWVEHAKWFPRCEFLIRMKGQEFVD

[17] = test system: D320A and E325A mutants of BIRC2BIR3; test: NMR and pulldown, BIRC2BIR3 D320A and E325A mutants; type: binding, human; details: NMR and pulldown (performed twice)
[18] = test system: D234A and E239A mutants of BIRC2BIR2; test: NMR and pulldown, BIRC2BIR2 D234A and E239A mutants; type: binding, human; details: NMR and pulldown (performed twice)
[19] = test system: BIRC2_3BIR D234A/D320A; test: pulldown, BIRC2_3BIR D234A/D320A; type: binding, human; details: D234A/D320A concurrently, performed twice

Which “sensitization to killing by TNF” value [1] does the source give for `CN[C@@H](C)C(=O)N[C@H](C(=O)N1CCC[C@H]1c1nc(C(=O)c2ccc(F)cc2)cs1)C1CCCCC1` [LCL161] here?
The value was “sensitized mouse embryonic fibroblasts (MEFs) and human glioma LN18 cells to killing by TNF”.

What about the “sensitization to killing by TNF” value [2] of the same molecule?
Its value is “sensitized mouse embryonic fibroblasts (MEFs) and human glioma LN18 cells to killing by TNF”.

What about the “degradation of BIRC2 and BIRC3” value [3] of the same molecule?
The value was “induced the rapid degradation of BIRC2 and BIRC3”.

And the “degradation of BIRC2 and BIRC3” value [4]?
The value was “induced the rapid degradation of BIRC2 and BIRC3”.

And the “RIPK1 deubiquitination, phosphorylation and activation” value [5]?
Its value is “deubiquitination and Ser166 phosphorylation and thus activation of RIPK1”.

What about the “association of FADD, cFLIPS and Ser166 phosphorylated RIPK1 with FAS” value [6] of the same molecule?
The value was “did not associate with FAS”.

And the caspase-3 cleavage [7]?
Its caspase-3 cleavage is “cleavage of caspase-3”.

And the “cytoplasmic histone-associated DNA fragments” value [8]?
Its value is “increase in cytoplasmic histone-associated DNA fragments”.

And the phosphatidylserine translocation [9]?
Its phosphatidylserine translocation is “translocation of phosphatidylserine from the inner to the outer leaflet”.

What about the plasma membrane permeabilization [9] of the same molecule?
The plasma membrane permeabilization was “permeabilization of the plasma membrane”.

And the LDH release [10]?
Its LDH release is “increase in lactate dehydrogenase (LDH) release”.

And the “apoptosis / LDH release in uninfected cells” value [11]?
Its value is “not in the uninfected cells”.

What about the “HIV-1 p24 antigen release” value [12] of the same molecule?
The value was “not accompanied by an increase in HIV-1 p24 antigen release”.

And the anticancer activity ([13]; at least two dozen tumor types)?
The anticancer activity was “potent anticancer activity in at least two dozen tumor types”.

What about the “sensitization of cancer cells to chemotherapy” value ([13]; with cisplatin and vincristine) of the same molecule?
Its value is “sensitizes cancer cells to conventional chemotherapy with cisplatin and vincristine”.

What about the “antiproliferation and bioavailability properties” value ([14]; among SMAC mimetic compounds) of the same molecule?
Its value is “one of the most promising antiproliferation and bioavailability properties”.

And the pharmacological properties [14]?
The pharmacological properties was “favorable pharmacological properties”.

What about the toxicity [14] of the same molecule?
The toxicity was “minor toxicity”.

With `CCCCCCCCCCCC1=C(O)C(=O)C=C(O)C1=O` [embelin] as the molecule, how does the “interleukin-6 (IL-6) level” value [15] read?
The value was “increase of interleukin-6 (IL-6)”.

Which “binding site in overlay of structures” value [16] does the source give for ATPF [caspase-9] here?
Its value is “occupy the same binding site of BIRC2BIR3”.

For AVPI [SMAC], which “binding site in overlay of structures” value [16] is on record?
Its value is “occupy the same binding site of BIRC2BIR3”.

For “H3: N terminus of H3 (residues 1–22 of H3), histone peptide in pulldowns”, which “binding to mutant domain” value [17] is on record?
Its value is “abrogated binding”.

What about the “binding to mutant domain” value [18] of the same molecule?
The value was “abrogated binding”.

And the “binding to double mutant of triple BIR” value [19]?
Its value is “disrupt binding”.

What does the source list for “H3T3ph: H3 peptide with phosphorylation of Thr3”?
binding to mutant domain [17]: abrogated binding; binding to mutant domain [18]: abrogated binding
